In one data set the test system is mice. As to the kind of experiment: Test for acute toxicity on mice. In kind it is in vivo. The following applies: one week after the administration, dead/tested. The text has this: Test for acute toxicity on mice
Groups each consisting of 6 male mice of ddY strain weighing between 22 and 26 g were used in this experiment.
Suspensions of the test compounds and indomethacin as the control in an 0.5% aqueous solution of tragacanth were orally administered respectively to the test animals, after which the test animals had been observed for a week to find the lethality thereof.

The subject of a further data set is passive Arthus reaction. As to the kind of experiment: Effect on passive Arthus reaction in rats (hind paw swelling). The following applies: Rattus norvegicus, po, 3 h, read-out: Swelling inhibiting ratio; for inhibition in vivo at 100 mg/kg: 100 mg/kg orally, one hour before induction, hind paw volume measured three hours after induction, anti BSA rabbit serum / BSA, relative to control group. It is filed as in vivo, rat (Wistar strain, male). The method, then:
Effect on passive Arthus reaction in rats
The rats which had been fasted for 18 hours were sensitized by injecting 0.3 ml of a 10% solution of an anti BSA rabbit serum (precipitation titer, 32 times) to them at the tail vein. […] On the other hand, only the vehicle was administered to the remainder of the test animals. [formula]

Take `O=C(O)CCCC1Cc2ccc(F)cc2C1=O` (stereo not shown) [Example 1, 6-fluoro-1-oxo-2,3-dihydro-2-indene butyric acid]: in the data set on mice (2,000 mg/kg orally), the Lethality was 1/6. In the data set on passive Arthus reaction, the inhibition in vivo at 100 mg/kg came out at 26.7%.

As to `O=C(O)CCCC1Cc2ccc(Cl)cc2C1=O` (stereo not shown) [Example 2, 6-chloro-1-oxo-2,3-dihydro-2-indene butyric acid], the Lethality in the data set on mice (2,000 mg/kg orally) is 2/6. In addition, in the data set on passive Arthus reaction, the inhibition in vivo at 100 mg/kg turned out to be 37.7%.

For the compound `O=C(O)CCC1Cc2ccc(Cl)cc2C1=O` (stereo not shown) [Example 3, 6-chloro-1-oxo-2,3-dihydro-2-indene propionic acid], in the data set on passive Arthus reaction, the inhibition in vivo at 100 mg/kg is 13.7%. `O=C(O)CCC1Cc2c(F)cccc2C1=O` (stereo not shown) [Example 5, 4-fluoro-1-oxo-2,3-dihydro-2-indene propionic acid]: the Lethality in the data set with mice (2,000 mg/kg orally) was 2/6. For the same compound, the inhibition in vivo at 100 mg/kg in the data set with passive Arthus reaction was found to be 41.7%. For `O=C(O)CCC1Cc2ccc(F)cc2C1=O` (stereo not shown) [Example 6, 6-fluoro-1-oxo-2,3-dihydro-2-indene propionic acid], the Lethality in the data set on mice (500 mg/kg orally) is reported as 0/6; with mice (1,000 mg/kg orally), 0/6; in the data set on mice (2,000 mg/kg orally), 2/6. For the same compound, the inhibition in vivo at 100 mg/kg in the data set on passive Arthus reaction was 39.4%. Take `O=C(O)CCC1Cc2cc(Cl)ccc2C1=O` (stereo not shown) [Example 8, 5-chloro-1-oxo-2,3-dihydro-2-indene propionic acid]: in the data set with passive Arthus reaction, the inhibition in vivo at 100 mg/kg stood at 17.5%.

In the case of `O=C(O)CCCC1Cc2c(Cl)cccc2C1=O` (stereo not shown) [Example 11, 4-chloro-1-oxo-2,3-dihydro-2-indene butyric acid], in the data set on passive Arthus reaction, the inhibition in vivo at 100 mg/kg is 13.9%. In the case of `O=C(O)CCCC1Cc2c(Cl)cc(Cl)cc2C1=O` (stereo not shown) [Example 13, 4,6-dichloro-1-oxo-2,3-dihydro-2-indene butyric acid], in the data set on mice (2,000 mg/kg orally), the Lethality is listed as 1/6. For the same compound, in the data set on passive Arthus reaction, the inhibition in vivo at 100 mg/kg amounted to 22.5%. For `O=C(O)CCCCC1Cc2c(Cl)cccc2C1=O` (stereo not shown) [Example 14, 4-chloro-1-oxo-2,3-dihydro-2-indene valeric acid], in the data set with mice (2,000 mg/kg orally), the Lethality is listed as 0/6. The inhibition in vivo at 100 mg/kg in the data set on passive Arthus reaction was 18.6%. On to `O=C(O)CCCCC1Cc2cc(Cl)ccc2C1=O` (stereo not shown) [Example 15, 5-chloro-1-oxo-2,3-dihydro-2-indene valeric acid], for which the Lethality with mice (2,000 mg/kg orally) is reported as 0/6. The inhibition in vivo at 100 mg/kg in the data set on passive Arthus reaction was 35.3%.

Turning to `O=C(O)CCCCC1Cc2ccc(Cl)cc2C1=O` (stereo not shown) [Example 16, 6-chloro-1-oxo-2,3-dihydro-2-indene valeric acid], the inhibition in vivo at 100 mg/kg in the data set with passive Arthus reaction stood at 16.2%.

Take `COc1ccc2c(c1)c(CC(=O)O)c(C)n2C(=O)c1ccc(Cl)cc1` [Indomethacin, indomethacin, reference compound]: in the data set with mice (50 mg/kg orally), the Lethality is reported as 6/6. Further, the inhibition in vivo at 5 mg/kg in the data set on passive Arthus reaction worked out at 8.1%.

For the origin of these results see patent publication US4443626A, “2,3-Dihydro-indene derivatives” (Hisamitsu Pharmaceutical Co., Inc., priority 1982, dated 1984).
